Source: patent US12150922B1, “Methods of inhibiting cyclooxygenase (COX) using tolterodine” (priority 2023, dated 2024)
Values joined by “and” are separate entries in the source; they are usually repeats but may differ in a detail not shown here. Identical values can stand only once.

Columns and labels:
[1] = target: COX-1 (UniProt P05979); assay type: biochemical; conditions: conversion of arachidonic acid to prostaglandin; 10 min preincubation at 37° C.; three separate experiments
Source text: (§1) The Schrodinger Maestro molecular modeling suite (Schrodinger LLC, New York, USA) was utilized for all stages of virtual screening modeling. QikProp software tools offer a fast, accurate, and user-friendly approach for predicting molecular characteristics. This software evaluates a given molecule's properties and compares them with those of substances present in 95% of commonly prescribed drugs. A series of graded filters is employed to identify potential interactions within the active site of the receptor and the ligand. This process involves constructing a grid with varying field sets that accurately score the ligand poses while simultaneously depicting the structure and attributes of the receptor. COX-1 and COX-2 inhibitor screening assay kits were obtained from Cayman Chemical (Ann Arbor, MI, USA).
(§2) The inhibitory effects of tolterodine on COX-1 and COX-2 were determined using COX inhibitor screening test kits, testing each compound's capacity to inhibit the conversion of arachidonic acid to prostaglandin. In test tubes, 25 mM Tris-HCl, pH 8.0, containing 5 mM EDTA, phenol, and 1 mM hematin was added. Tolterodine was dissolved in DMSO and added in concentrations ranging from […]. […]
(§3) Three separate experiments were used to calculate the IC50 values. The selectivity index was calculated as follows: Selectivity Index (SI)=IC50 COX-1/IC50 COX-2

[2] = target: T1, COX-2 (Homo sapiens, UniProt P35354); test: biochemical
T1 construct: purchased Cayman Chemical (Ann Arbor, MI, USA)
Source text: as §1, §2, §3

T1 sequence (P35354 18-604): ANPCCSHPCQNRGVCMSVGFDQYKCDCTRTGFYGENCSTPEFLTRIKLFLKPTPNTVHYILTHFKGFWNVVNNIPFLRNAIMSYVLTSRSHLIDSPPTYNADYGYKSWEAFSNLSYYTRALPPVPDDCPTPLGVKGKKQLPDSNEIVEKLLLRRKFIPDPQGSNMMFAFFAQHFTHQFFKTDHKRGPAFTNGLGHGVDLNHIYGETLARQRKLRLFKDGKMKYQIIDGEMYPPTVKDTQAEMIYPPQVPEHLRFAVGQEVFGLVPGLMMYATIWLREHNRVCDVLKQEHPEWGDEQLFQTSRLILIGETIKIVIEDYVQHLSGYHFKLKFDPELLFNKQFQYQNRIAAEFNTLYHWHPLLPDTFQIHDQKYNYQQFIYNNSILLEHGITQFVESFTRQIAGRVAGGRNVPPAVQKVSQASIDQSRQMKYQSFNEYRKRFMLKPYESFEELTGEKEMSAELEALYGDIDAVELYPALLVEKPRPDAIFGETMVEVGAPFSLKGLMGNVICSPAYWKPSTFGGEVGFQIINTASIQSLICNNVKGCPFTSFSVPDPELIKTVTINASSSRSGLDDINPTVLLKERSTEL
Sequence of COX-1 (P05979 whole entry): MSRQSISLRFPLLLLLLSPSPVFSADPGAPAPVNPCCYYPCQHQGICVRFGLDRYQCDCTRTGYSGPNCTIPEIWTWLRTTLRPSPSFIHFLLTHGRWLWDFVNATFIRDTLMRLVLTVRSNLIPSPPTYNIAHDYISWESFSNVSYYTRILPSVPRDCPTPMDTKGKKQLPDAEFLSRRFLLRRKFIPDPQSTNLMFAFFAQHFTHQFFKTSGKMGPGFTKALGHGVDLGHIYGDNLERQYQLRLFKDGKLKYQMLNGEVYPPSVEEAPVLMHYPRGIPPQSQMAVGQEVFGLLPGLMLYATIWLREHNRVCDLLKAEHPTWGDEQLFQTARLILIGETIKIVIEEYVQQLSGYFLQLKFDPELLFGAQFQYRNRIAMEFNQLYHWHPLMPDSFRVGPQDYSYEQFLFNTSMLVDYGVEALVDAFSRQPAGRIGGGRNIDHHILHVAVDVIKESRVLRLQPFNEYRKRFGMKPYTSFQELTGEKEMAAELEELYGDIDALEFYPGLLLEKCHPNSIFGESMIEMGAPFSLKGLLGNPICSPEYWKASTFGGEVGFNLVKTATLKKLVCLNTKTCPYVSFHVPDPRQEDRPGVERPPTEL

Cc1ccc(O)c([C@H](CCN(C(C)C)C(C)C)c2ccccc2)c1 [Tolterodine] was tested, and the IC50 [1] was ~4530 nM and 4530 nM, the “SI (Selectivity Index = IC50 COX-1/IC50 COX-2)” value [2] was 14.3 and the IC50 ([2]; conversion of arachidonic acid to prostaglandin, 10 min preincubation at 37° C., three separate experiments) was ~320 nM and 320 nM.
